Measurements taken from paper PMC9403976, “Elucidating the path to Plasmodium prolyl-tRNA synthetase inhibitors that overcome halofuginone resistance” (Nature Communications, 2022).
Values joined by “and” are separate entries in the source; they are usually repeats but may differ in a detail not shown here. Equal entries are not always repeated. Where two headings read alike, the source gives them in different places.

Tests used:
HsProRS = HsProRS (Homo sapiens, UniProt P07814); assay: TR-FRET ligand displacement assay with tracer MAT379 (CoraFluor-1-Halo and anti-His6 antibody formats); assay type: binding; set-up: made in house; host or cells: E. coli SoluBL-21; conditions: for TR-FRET dose-response, normalized signal (SI Fig 11): individual replicates
P. falciparum Dd2-2D4 = assay: P. falciparum asexual blood stage (ABS) growth assay, SYBR Green, 72 h, wild-type parasites; assay type: cell-based, Plasmodium falciparum; conditions: Plasmodium falciparum, DD2; SI Fig 16b; values on -log scale; read-out: ABS - Dd2-2D4 (converted)
PfcProRS = molecular target: T1, PfcProRS (Plasmodium falciparum, UniProt Q8I5R7); assay type: binding; conditions: single replicates
T1 construct: made in house; host or cells: E. coli SoluBL-21
T1 sequence (Q8I5R7 249-746): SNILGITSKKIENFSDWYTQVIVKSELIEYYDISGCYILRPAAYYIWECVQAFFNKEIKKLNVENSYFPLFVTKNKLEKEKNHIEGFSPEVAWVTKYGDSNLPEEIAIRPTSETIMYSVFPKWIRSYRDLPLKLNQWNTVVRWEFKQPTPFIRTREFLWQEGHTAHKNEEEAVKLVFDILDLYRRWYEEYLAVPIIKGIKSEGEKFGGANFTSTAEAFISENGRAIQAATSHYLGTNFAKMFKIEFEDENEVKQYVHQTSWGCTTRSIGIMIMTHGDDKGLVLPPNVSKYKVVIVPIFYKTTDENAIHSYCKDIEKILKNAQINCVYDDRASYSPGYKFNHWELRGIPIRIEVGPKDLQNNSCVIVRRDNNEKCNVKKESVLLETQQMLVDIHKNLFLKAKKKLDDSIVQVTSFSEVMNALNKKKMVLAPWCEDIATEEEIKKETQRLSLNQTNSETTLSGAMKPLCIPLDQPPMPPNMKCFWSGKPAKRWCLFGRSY

Sequence of HsProRS (P07814 996-1512): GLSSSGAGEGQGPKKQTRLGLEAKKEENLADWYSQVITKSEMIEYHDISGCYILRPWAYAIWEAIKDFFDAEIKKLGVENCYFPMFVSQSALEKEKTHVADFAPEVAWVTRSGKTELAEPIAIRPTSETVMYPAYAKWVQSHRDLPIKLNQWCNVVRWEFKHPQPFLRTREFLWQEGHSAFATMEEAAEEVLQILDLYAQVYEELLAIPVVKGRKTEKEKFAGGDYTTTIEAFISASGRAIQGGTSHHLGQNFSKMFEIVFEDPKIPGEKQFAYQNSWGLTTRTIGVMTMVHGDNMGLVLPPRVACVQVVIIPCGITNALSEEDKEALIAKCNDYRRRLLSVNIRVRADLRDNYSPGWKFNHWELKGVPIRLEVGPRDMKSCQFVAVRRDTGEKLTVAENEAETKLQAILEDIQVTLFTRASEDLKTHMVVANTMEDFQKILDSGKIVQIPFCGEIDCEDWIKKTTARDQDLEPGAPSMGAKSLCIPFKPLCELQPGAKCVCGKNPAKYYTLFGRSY

CC(C)(C)OC(=O)NC1(C(=O)Nc2nccnc2C(=O)NC2Cc3ccccc3C2)CCCCC1 [compound 16]
IC50 (HsProRS): > 10 µM | HsProRS % signal at 10 μM, + 100 μM proline (HsProRS; + 100 μM proline, 10 μM): 70.7% | normalized TR-FRET ligand displacement signal, dose-response replicates (SI Fig 6) (HsProRS; Log[inhibitor] (M) -5.000): 4.34E-01 and 4.81E-01 and 6.11E-01 | TR-FRET dose-response, normalized signal (SI Fig 11) (HsProRS; Log[inhibitor] (M) -5.000): 8.52E-01 and 8.40E-01 and 8.43E-01 | normalized TR-FRET ligand displacement signal, dose-response replicates (SI Fig 6) (HsProRS; Log[inhibitor] (M) -5.301): 6.93E-01 and 7.38E-01 and 8.04E-01 | TR-FRET dose-response, normalized signal (SI Fig 11) (HsProRS; Log[inhibitor] (M) -5.301): 9.27E-01 and 9.08E-01 and 9.74E-01 | normalized TR-FRET ligand displacement signal, dose-response replicates (SI Fig 6) (HsProRS; Log[inhibitor] (M) -5.601): 9.79E-01 and 9.61E-01 and 8.02E-01 | TR-FRET dose-response, normalized signal (SI Fig 11) (HsProRS; Log[inhibitor] (M) -5.601): 9.47E-01 and 9.15E-01 and 9.10E-01 | normalized TR-FRET ligand displacement signal, dose-response replicates (SI Fig 6) (HsProRS; Log[inhibitor] (M) -5.904): 1.00E+00 and 9.00E-01 and 9.53E-01 | TR-FRET dose-response, normalized signal (SI Fig 11) (HsProRS; Log[inhibitor] (M) -5.904): 9.81E-01 and 1.01E+00 and 9.64E-01 | normalized TR-FRET ligand displacement signal, dose-response replicates (SI Fig 6) (HsProRS; Log[inhibitor] (M) -6.208): 1.01E+00 and 9.68E-01 and 8.67E-01 | TR-FRET dose-response, normalized signal (SI Fig 11) (HsProRS; Log[inhibitor] (M) -6.208): 9.74E-01 and 9.73E-01 and 9.58E-01 | normalized TR-FRET ligand displacement signal, dose-response replicates (SI Fig 6) (HsProRS; Log[inhibitor] (M) -6.509): 8.93E-01 and 9.31E-01 and 9.89E-01 | TR-FRET dose-response, normalized signal (SI Fig 11) (HsProRS; Log[inhibitor] (M) -6.509): 9.98E-01 and 9.53E-01 and 9.97E-01 | normalized TR-FRET ligand displacement signal, dose-response replicates (SI Fig 6) (HsProRS; Log[inhibitor] (M) -6.796): 9.58E-01 and 1.05E+00 and 1.01E+00 | TR-FRET dose-response, normalized signal (SI Fig 11) (HsProRS; Log[inhibitor] (M) -6.796): 9.61E-01 and 9.66E-01 and 9.67E-01 | normalized TR-FRET ligand displacement signal, dose-response replicates (SI Fig 6) (HsProRS; Log[inhibitor] (M) -7.108): 9.61E-01 and 9.43E-01 and 9.87E-01 | TR-FRET dose-response, normalized signal (SI Fig 11) (HsProRS; Log[inhibitor] (M) -7.108): 9.51E-01 and 9.57E-01 and 9.59E-01 | normalized TR-FRET ligand displacement signal, dose-response replicates (SI Fig 6) (HsProRS; Log[inhibitor] (M) -7.409): 1.08E+00 and 1.02E+00 (2×) | TR-FRET dose-response, normalized signal (SI Fig 11) (HsProRS; Log[inhibitor] (M) -7.409): 9.88E-01 and 8.98E-01 and 1.00E+00 | normalized TR-FRET ligand displacement signal, dose-response replicates (SI Fig 6) (HsProRS; Log[inhibitor] (M) -7.710): 9.30E-01 and 9.73E-01 and 8.91E-01 | TR-FRET dose-response, normalized signal (SI Fig 11) (HsProRS; Log[inhibitor] (M) -7.710): 9.77E-01 and 9.48E-01 and 9.54E-01 | normalized TR-FRET ligand displacement signal, dose-response replicates (SI Fig 6) (HsProRS; Log[inhibitor] (M) -8.000): 9.09E-01 and 9.96E-01 and 8.17E-01 | TR-FRET dose-response, normalized signal (SI Fig 11) (HsProRS; Log[inhibitor] (M) -8.000): 9.83E-01 and 9.29E-01 and 9.65E-01 | normalized TR-FRET ligand displacement signal, dose-response replicates (SI Fig 6) (HsProRS; Log[inhibitor] (M) -8.301): 9.56E-01 and 8.69E-01 and 9.45E-01 | TR-FRET dose-response, normalized signal (SI Fig 11) (HsProRS; Log[inhibitor] (M) -8.301): 1.00E+00 and 1.01E+00 and 9.30E-01 | normalized TR-FRET ligand displacement signal, dose-response replicates (SI Fig 6) (HsProRS; Log[inhibitor] (M) -8.602): 9.44E-01 and 9.32E-01 and 1.00E+00 | TR-FRET dose-response, normalized signal (SI Fig 11) (HsProRS; Log[inhibitor] (M) -8.602): 9.93E-01 and 9.41E-01 and 1.01E+00 | normalized TR-FRET ligand displacement signal, dose-response replicates (SI Fig 6) (HsProRS; Log[inhibitor] (M) -9.000): 8.94E-01 and 8.85E-01 and 9.67E-01 | TR-FRET dose-response, normalized signal (SI Fig 11) (HsProRS; Log[inhibitor] (M) -9.000): 9.74E-01 and 9.63E-01 and 9.89E-01 | normalized TR-FRET ligand displacement signal, dose-response replicates (SI Fig 6) (HsProRS; Log[inhibitor] (M) -9.301): 1.12E+00 and 1.00E+00 and 9.62E-01 | TR-FRET dose-response, normalized signal (SI Fig 11) (HsProRS; Log[inhibitor] (M) -9.301): 9.82E-01 and 9.33E-01 and 9.53E-01 | HsProRS % signal at 10 μM (HsProRS; no added proline/ATP (-), 10 μM): 84.5% | IC50 (HsProRS; read-out: HsProRS IC50 + 100 μM proline, + 100 μM proline): > 10 µM | EC50 (P. falciparum Dd2-2D4): 6.11 µM | dose-response signal (normalized), SI Fig 8 (PfcProRS; Log[inhibitor] (M) -5.000): 6.20E-01 and 5.27E-01 and 6.63E-01 | dose-response signal (normalized), SI Fig 8 (PfcProRS; Log[inhibitor] (M) -5.301): 7.82E-01 and 8.01E-01 and 7.78E-01 | dose-response signal (normalized), SI Fig 8 (PfcProRS; Log[inhibitor] (M) -5.601): 9.11E-01 and 9.60E-01 and 1.00E+00 | dose-response signal (normalized), SI Fig 8 (PfcProRS; Log[inhibitor] (M) -5.904): 1.10E+00 and 9.14E-01 and 1.01E+00 | dose-response signal (normalized), SI Fig 8 (PfcProRS; Log[inhibitor] (M) -6.208): 9.01E-01 and 9.36E-01 and 9.23E-01 | dose-response signal (normalized), SI Fig 8 (PfcProRS; Log[inhibitor] (M) -6.509): 1.06E+00 and 9.75E-01 and 1.11E+00 | dose-response signal (normalized), SI Fig 8 (PfcProRS; Log[inhibitor] (M) -6.796): 9.95E-01 (2×) and 1.12E+00 | dose-response signal (normalized), SI Fig 8 (PfcProRS; Log[inhibitor] (M) -7.108): 9.41E-01 and 8.82E-01 and 1.04E+00 | dose-response signal (normalized), SI Fig 8 (PfcProRS; Log[inhibitor] (M) -7.409): 1.04E+00 and 1.02E+00 and 9.01E-01 | dose-response signal (normalized), SI Fig 8 (PfcProRS; Log[inhibitor] (M) -7.710): 9.65E-01 and 9.90E-01 and 1.00E+00 | dose-response signal (normalized), SI Fig 8 (PfcProRS; Log[inhibitor] (M) -8.000): 9.92E-01 and 8.87E-01 and 9.29E-01 | dose-response signal (normalized), SI Fig 8 (PfcProRS; Log[inhibitor] (M) -8.301): 9.41E-01 and 9.84E-01 and 9.99E-01 | dose-response signal (normalized), SI Fig 8 (PfcProRS; Log[inhibitor] (M) -8.602): 9.39E-01 and 9.44E-01 and 1.00E+00 | dose-response signal (normalized), SI Fig 8 (PfcProRS; Log[inhibitor] (M) -9.000): 9.16E-01 and 9.94E-01 and 9.86E-01 | dose-response signal (normalized), SI Fig 8 (PfcProRS; Log[inhibitor] (M) -9.301): 9.11E-01 and 9.01E-01 and 9.58E-01
